Reference: the NIST ThermoML archive (doi:10.1016/j.fluid.2008.03.004)

Test: xn = mol fraction of the nth substance listed
Conditions: 101 kPa, Liquid; for speed of sound: Sing-around technique in a fixed-path interferometer

CCOC(C)(C)C [2-ethoxy-2-methylpropane] + Cc1ccccc1C
Conditions	mass density [kg/m3]	speed of sound [m/s]
305.65 K, x1 = 0.055	860.769	–
305.65 K, x1 = 0.098	854.986	–
305.65 K, x1 = 0.201	840.317	–
305.65 K, x1 = 0.307	825.151	–
305.65 K, x1 = 0.4	811.766	–
305.65 K, x1 = 0.502	797.158	–
305.65 K, x1 = 0.601	783.634	–
305.65 K, x1 = 0.661	775.073	–
305.65 K, x1 = 0.803	755.208	–
305.65 K, x1 = 0.895	742.232	–
305.65 K, x1 = 0.947	735.025	–
305.65 K, x1 = 1	727.038	–
308.15 K, x1 = 0.055	858.631	1287.6
308.15 K, x1 = 0.098	852.826	1274.8
308.15 K, x1 = 0.201	838.108	1241.4
308.15 K, x1 = 0.307	822.889	1205.4
308.15 K, x1 = 0.4	809.458	1176.8
308.15 K, x1 = 0.502	794.798	1143
308.15 K, x1 = 0.601	781.229	1112.4
308.15 K, x1 = 0.661	772.636	1093.1
308.15 K, x1 = 0.803	752.697	1049.4
308.15 K, x1 = 0.895	739.673	1022.1
308.15 K, x1 = 0.947	732.438	1007
308.15 K, x1 = 1	724.443	986.39
310.65 K, x1 = 0.055	856.488	1277.2
310.65 K, x1 = 0.098	850.664	1264.8
310.65 K, x1 = 0.201	835.894	1231.1
310.65 K, x1 = 0.307	820.623	1195
310.65 K, x1 = 0.4	807.147	1166.3
310.65 K, x1 = 0.502	792.433	1132.4
310.65 K, x1 = 0.601	778.816	1101.8
310.65 K, x1 = 0.661	770.192	1082.4
310.65 K, x1 = 0.803	750.176	1038.6
310.65 K, x1 = 0.895	737.1	1011.2
310.65 K, x1 = 0.947	729.838	996
310.65 K, x1 = 1	721.826	975.42
313.15 K, x1 = 0.055	854.337	1267.1
313.15 K, x1 = 0.098	848.496	1254.7
313.15 K, x1 = 0.201	833.676	1220.9
313.15 K, x1 = 0.307	818.351	1184.6
313.15 K, x1 = 0.4	804.83	1155.9
313.15 K, x1 = 0.502	790.061	1121.9
313.15 K, x1 = 0.601	776.395	1091.1
313.15 K, x1 = 0.661	767.738	1071.7
313.15 K, x1 = 0.803	747.65	1027.7
313.15 K, x1 = 0.895	734.522	1000.3
313.15 K, x1 = 0.947	727.227	985.03
313.15 K, x1 = 1	719.179	964.53
315.65 K, x1 = 0.055	852.189	1256.9
315.65 K, x1 = 0.098	846.323	1244.6
315.65 K, x1 = 0.201	831.454	1210.7
315.65 K, x1 = 0.307	816.076	1174.3
315.65 K, x1 = 0.4	802.508	1145.5
315.65 K, x1 = 0.502	787.684	1111.4
315.65 K, x1 = 0.601	773.969	1080.5
315.65 K, x1 = 0.661	765.278	1061
315.65 K, x1 = 0.803	745.112	1017
315.65 K, x1 = 0.895	731.932	989.44
315.65 K, x1 = 0.947	724.606	974.07
315.65 K, x1 = 1	716.527	953.54
318.15 K, x1 = 0.055	850.034	1246.8
318.15 K, x1 = 0.098	844.148	1234.5
318.15 K, x1 = 0.201	829.229	1200.6
318.15 K, x1 = 0.307	813.795	1164.1
318.15 K, x1 = 0.4	800.179	1135.1
318.15 K, x1 = 0.502	785.298	1100.9
318.15 K, x1 = 0.601	771.536	1070
318.15 K, x1 = 0.661	762.809	1050.4
318.15 K, x1 = 0.803	742.564	1006.2
318.15 K, x1 = 0.895	729.329	978.59
318.15 K, x1 = 0.947	721.974	963.16
318.15 K, x1 = 1	713.96	942.67
320.65 K, x1 = 0.055	847.874	1236.7
320.65 K, x1 = 0.098	841.964	1224.5
320.65 K, x1 = 0.201	826.995	1190.5
320.65 K, x1 = 0.307	811.507	1153.8
320.65 K, x1 = 0.4	797.84	1124.8
320.65 K, x1 = 0.502	782.908	1090.4
320.65 K, x1 = 0.601	769.096	1059.4
320.65 K, x1 = 0.661	760.332	1039.8
320.65 K, x1 = 0.803	740.007	995.53
320.65 K, x1 = 0.895	726.717	967.79
320.65 K, x1 = 0.947	719.329	952.29
320.65 K, x1 = 1	711.25	931.73
323.15 K, x1 = 0.055	845.711	1226.7
323.15 K, x1 = 0.098	839.779	1214.5
323.15 K, x1 = 0.201	824.757	1180.4
323.15 K, x1 = 0.307	809.216	1143.6
323.15 K, x1 = 0.4	795.504	1114.5
323.15 K, x1 = 0.502	780.509	1080
323.15 K, x1 = 0.601	766.647	1049
323.15 K, x1 = 0.661	757.845	1029.2
323.15 K, x1 = 0.803	737.438	984.84
323.15 K, x1 = 0.895	724.092	957.05
323.15 K, x1 = 0.947	716.673	941.53
323.15 K, x1 = 1	708.642	920.73
